TGI and GI50 data for 29 compounds are collected here from PubChem BioAssay (NCI).

Holding throughout (experiment): NCI tumour cell line growth inhibition, 48 h
Test [1] concerns 786-0 renal.
Test [2] has as its system CAKI-1 renal.
The test system of test [3] is COLO 205 colon.
In test [4] the test system is HOP-62 NSCLC.
Test [5] deals with NCI-H226 lung.
Test [6] deals with NCI-H460 lung.
For test [7], the system named is OVCAR-4 ovarian.
Test [8] deals with SN12C renal.
The test system of test [9] is UO-31 renal.

“And” between values parts separate entries of the source, which are not always exact repeats. Equal values may be shown once.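 Protocol summary: plate cells (96-well), add compound at 5 concentrations, incubate 48 h, interpolate endpoints linearly. GI50: concentration for 50% inhibition of growth. The concentration for full growth arrest is given as TGI.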 Where only a bound is given, the exact number is not on record here.

As for `COc1ccc(/C=C2\C(=O)Nc3ccccc32)cc1OC`, the TGI in test [1], in test [2], in [3], in test [4], in test [5] and in [6] was over 100 µM throughout. In addition, the TGI in [7], in [8] and in [9] was over 100 µM each time.

Consider `CCCCN(CCCC)C(=O)C(=O)C(C(=O)C(=O)OC)c1nc2ccccc2o1` (stereo unspecified), for which the TGI in [1], in test [2], in test [3], in test [4], in [5] and in test [6] was over 100 µM each time. The TGI in [7], in test [8] and in test [9] was over 100 µM throughout.

Regarding `Cn1cnc([N+](=O)[O-])c1Sc1nccn1-c1ccccc1`, the TGI in test [1], in [2], in test [3], in test [4], in test [5] and in test [6] was over 100 µM in each case. Moreover, the TGI in [7], in [8] and in [9] was over 100 µM each time.

On to `OCC(O)COc1ccc(F)cc1` (stereo unspecified), for which the TGI in [1], in test [2], in [3], in test [4], in test [5] and in [6] was over 100 µM in each case. The TGI in [7], in [8] and in test [9] was over 100 µM throughout.

In the case of `COc1ncnn2ccc(-c3cnc4nc(C)n(Cc5nnc(C(C)F)o5)c4c3)c12` (stereo unspecified), the GI50 in test [1] was 0.273 µM; in [2], 0.0613 µM; in test [3] it was 0.11 µM; in [5], 0.156 µM; in [6], 0.242 µM; in test [7], 0.278 µM. The GI50 in test [8] was 0.255 µM. Further, the TGI in test [1] is over 100 µM; in test [2], over 100 µM; in test [3], 0.468 µM; in test [5] it was 0.949 µM; in test [6], over 100 µM; in test [7] it was 0.995 µM. In test [8], this compound gave a TGI of over 58.1 µM.

Consider `Cc1cc2c(=O)cc(-c3ccc(Cl)cc3Cl)oc2c(C(=O)O)c1C`, for which the TGI in test [1], in [2], in test [3], in test [5], in [6] and in test [7] was over 100 µM each time. The TGI in test [8] and in test [9] was over 100 µM in each case.

As for `COC1OC(CO)C(O)C(NC(=O)N(C)N=O)C1O` (stereo unspecified), the TGI in [1], in test [2], in test [3], in test [5], in test [6] and in [7] was over 100 µM throughout. The TGI in test [8] and in test [9] was over 100 µM in each case.

Consider `COc1cc(/C=C(\C)c2ccc3c(c2)OCO3)cc(OC)c1OC`, for which the TGI in test [1] is over 100 µM; in test [3] it was 39.7 µM; in [4], over 100 µM; in test [5], over 100 µM; in [6] it was over 100 µM; in test [7] it was over 100 µM. The TGI is over 100 µM in [8] and 79.2 µM in [9].

In the case of `NC(=S)N/N=C/c1cn(CCCl)c2ccccc12`, the TGI in test [1], in test [2], in [3], in [4], in test [8] and in test [9] was over 100 µM in each case.

Consider `CC(=O)OC1C(COC(N)=O)OC(n2c(-c3ccc(C)cc3)cc(-c3ccccc3)c(C#N)c2=O)C(OC(C)=O)C1OC(C)=O` (stereo unspecified), for which the TGI in test [1], in test [2], in test [3], in [4], in test [5] and in test [6] was over 100 µM each time. Besides, the TGI in test [7], in test [8] and in test [9] was over 100 µM in each case.

As to `Cc1cc2c(=O)cc(-c3ccc(Cl)c(Cl)c3)oc2c(C(=O)O)c1C`, the TGI in test [1], in test [2], in [3], in test [5], in test [6] and in [7] was over 100 µM each time. The TGI in test [8] and in [9] was over 100 µM each time.

As for `COC(=O)C(=O)C(C(=O)C(=O)Nc1ccccc1C(N)=O)c1nc2ccc([N+](=O)[O-])cc2[nH]c1=O` (stereo unspecified), the TGI in test [1], in test [2], in test [3], in test [4], in [5] and in [6] was over 100 µM in each case. The TGI in test [7], in [8] and in [9] was over 100 µM in each case.

Take `CCOC(=O)c1c2c(n(Cc3ccccc3)c1C)-c1nc[nH]c1C(=O)C2=O`: the GI50 in test [1] is 18.1 µM; in [2], 18.5 µM; in test [3], 20.2 µM; in [4], 18.6 µM; in [5], 20.9 µM; in [6] it was 11.2 µM. The GI50 is 13.5 µM in [7], 16.4 µM in test [8] and 14.7 µM in test [9]. The TGI in test [1] was 32.1 µM; in [2], 38.5 µM; in [3] it was 35.1 µM; in test [4] it was 33.2 µM; in test [5], 47.2 µM; in [6], 23.2 µM. Moreover, the results for the TGI in test [7], in test [8] and in test [9] were 26.3 µM, 30 µM and 28.4 µM, respectively.

On to `Cc1cc2c(=O)cc(-c3ccc(C(=O)O)cc3)oc2c(C(N)=O)c1C`, for which the TGI in test [1], in test [3], in [4], in test [6], in [7] and in [8] was over 100 µM each time. This compound also returned a TGI in test [9] of over 100 µM.

`CNC(=O)N(CCCC(NC(C)=O)C(=O)NCc1ccccc1)Cc1ccccc1` (stereo unspecified): the TGI in [1], in [2], in test [3], in [4], in [5] and in test [6] was over 100 µM throughout. Moreover, the TGI in [7], in test [8] and in test [9] was over 100 µM in each case.

Consider `C=CCC1=C2CCCCC2CCC1=O` (stereo unspecified), for which the TGI in test [1], in test [2], in [3], in test [4], in [6] and in test [7] was over 100 µM throughout. Further, the TGI in [8] and in test [9] was over 100 µM throughout.

Consider `CCOc1ccc(N=C2NC(=O)C(CC(=O)Nc3ccc(Cl)cc3Cl)S2)cc1` (stereo unspecified), for which the TGI in [1], in [2], in test [3], in test [4], in test [6] and in [7] was over 100 µM throughout. Moreover, the TGI in test [8] and in test [9] was over 100 µM each time.

Consider `Cc1cc2c(=O)cc(-c3ccc(O)cc3)oc2c(C(=O)O)c1C`, for which the TGI in test [1] was over 100 µM; in test [2] it was 69.2 µM; in [3], over 100 µM; in [4], over 100 µM; in test [5], over 100 µM; in [6] it was over 100 µM. Also, the TGI in test [7], in test [8] and in test [9] was over 100 µM throughout.

`N#CC1(C#N)C2C=CC(C3CC=CC32)C1(C#N)C#N` (stereo unspecified): the GI50 was 2.19 µM in test [1]; 8.5 µM in test [2]; 5.5 µM in test [3]; 9.34 µM in [7]; 1.07 µM in test [9]. The TGI in test [1] was 3.36 µM and 7.76 µM; in test [2] it was 3.72 µM and 18.5 µM; in test [3], 4.3 µM and 13.5 µM; in test [4], 33.3 µM; in test [5], over 50 µM; in [6], over 50 µM. Further, the TGI was 9.16 µM and 18.7 µM in [7]; 18.4 µM in test [8]; 3.67 µM and 1.85 µM in test [9].

As to `Cc1ccc(S(=O)OC2c3ccccc3Cc3ccccc32)cc1` (stereo unspecified), the TGI in [1] was 48.1 µM; in test [2], 56.3 µM; in test [3], 31.5 µM; in test [4] it was 34.3 µM; in test [5], 37.1 µM; in [6], 46.2 µM. Besides, the TGI came out at 33.2 µM in test [7], 49.6 µM in test [8] and 45.7 µM in test [9].

`CN(CC(=O)O)S(=O)(=O)c1ccc(Cl)cc1`: the TGI in [1], in test [2], in test [3], in test [5], in test [6] and in [7] was over 100 µM throughout. In addition, the TGI in test [8] and in test [9] was over 100 µM in each case.

For `S=c1sc2sc(=S)sc2s1`, the TGI in test [1] was over 100 µM; in test [2], over 100 µM; in test [3], over 100 µM; in test [4], over 100 µM; in [6], 47.7 µM; in test [7] it was over 100 µM. The results for the TGI in [8] and in test [9] were over 100 µM and 81.8 µM, respectively.

On to `O=C([CH-]C(=O)c1ccccc1)c1ccccc1.O=C([CH-]C(=O)c1ccccc1)c1ccccc1.[CH2-]CCC.[CH2-]CCC.[Sn+4]`, for which the GI50 in test [1] was 0.313 µM; in [2], 0.067 µM; in test [3], 0.31 µM; in [4], 1.95 µM; in test [5], 0.26 µM; in test [6], 1.76 µM. Further, the GI50 in test [8] is 0.509 µM; in test [9] it was 1.08 µM. Besides, the TGI in test [1] worked out at 1.35 µM; in [2], 0.462 µM; in test [3] it was 1.23 µM; in test [4], 3.41 µM; in test [5], 0.938 µM; in [6], 4.14 µM. In addition, the TGI is 1.75 µM in test [8] and 2.29 µM in test [9].

`CN1C[C@@H]2CC(=O)CC[C@@H]2C[C@H]1C#N`: the TGI in [1], in [2], in test [4], in test [5], in [6] and in test [7] was over 100 µM each time. Moreover, the TGI in test [8] and in test [9] was over 100 µM throughout.

With `CC1=CC=C2C(C)(C)CC[C@@H]3OC(=O)[C@H]1[C@]23C`, the TGI in [1], in test [2], in test [3], in [4], in test [5] and in test [7] was over 100 µM in each case. Further, the TGI in test [8] and in test [9] was over 100 µM in each case.

Turning to `Cc1ccccc1C(C#N)/C(=N/NC(N)=S)C(=O)Nc1c(C)cccc1C` (stereo unspecified), the TGI in [1], in [3], in [4], in test [5], in [6] and in test [7] was over 100 µM throughout. Besides, the TGI in test [8] and in test [9] was over 100 µM in each case.

As to `CN1C(=O)CNS1(=O)=O`, the TGI in test [1], in [4], in test [5], in [6], in [8] and in test [9] was over 100 µM each time.

As for `Cc1ccc(NC(=O)CC2SC(=Nc3cccc(Cl)c3C)NC2=O)cc1` (stereo unspecified), the TGI in [1], in [2], in test [3], in test [4], in test [6] and in test [7] was over 100 µM throughout. The TGI is over 100 µM in test [8] and 73.8 µM in [9].

`O=C(O)COc1ccc2c3c1C(=O)CCC3CO2` (stereo unspecified): the TGI in test [1], in [2], in test [3], in test [4], in [6] and in test [7] was over 100 µM throughout. Also, the TGI in test [8] and in test [9] was over 100 µM in each case.
